The text below walks through data of US12475972B2, “Prediction system for identifying key heterogeneous molecules driving tumor metastasis” (NANJING HANWEI PUBLIC HEALTH TECHNOLOGY CO., LTD., priority 2021, dated 2025).

One experiment concerns BGC823-LPC2. In words: Transwell experiment in BGC823-LPC2 cells. As to conditions: treated 8 hours, dose-response. Format: cell-based. The method, then:
To verify the relationship between USP9X and gastric cancer metastasis, cultured BGC823 LPC2 cells were first treated with USP9X inhibitor WP-1130 (existing product) for 8 hours before a transwell experiment. […] Thus, it can be seen that inhibiting the expression of USP9X can effectively reduce the migration of gastric cancer cells.
For the heterogeneous molecule PFN1, a low expression lentiviral plasmid sh-PFN1 was constructed due to the lack of commercialized inhibitor compounds. Transwell experiments were performed after transfection of sh-con and sh-PFN1 in BGC823-LPC2 for 48 hours.

The next experiment concerns USP9X. In words: Immunoblotting of USP9X and p-AKT after WP-1130. Format: cell-based. The settings on record: dose-response.
A further experiment relates to BGC823 LPC2 cells. In words: Scratch experiment after WP-1130. Format: cell-based.
In another experiment the test system is BGC823-LPC2 cells. Put plainly: BGC823-LPC2 passive metastasis model. Format: in vivo, nude mice. The settings on record: compared with the solvent control group. The text has this:
On the basis of the positive results obtained in the cell model, the animal model was then validated. A passive metastasis model was constructed using BGC823-LPC2 cells injected through the tail vein of nude mice. The mice were randomized on the second day and given control solvent, EGCG, WP-1130 alone, and WP-1130 plus sh-PFN1 lentivirus in a sequential manner.

In experiment [1] the test system is BGC823 cells and BGC823-LPC1. Put plainly: Transwell experiment after FASN inhibitor EGCG. Format: cell-based. The settings on record: different concentrations, 24 hours. The method, then:
Further validation of the relationship between FASN and gastric cancer metastasis using transwell and scratch experiments: BGC823 cells and BGC823-LPC1 (primary cells of residual lung metastases in the animal model SP141 and JP3 combined intervention group) were treated with different concentrations of FASN inhibitor EGCG for 24 hours, followed by transwell experiments. […] The inhibition rate of perforation cells was similar in both types of cells (FIG. 20B). […] As shown in FIGS. 20A-20D, intervention on FASN can inhibit the migration of gastric cancer cells.

The subject of experiment [2] is FASN. Put plainly: Immunoblotting of FASN and FAK after EGCG. The class given is cell-based. As to conditions: dose-response.
For a further experiment, the system named is BGC823-LPC1. Put plainly: BGC823-LPC1 passive metastasis model. The class given is in vivo, mice. The settings on record: compared to the solvent control group. The method, then:
A passive metastasis model was constructed by extracting primary cells BGC823-LPC1 from residual lung metastases after joint intervention on JWA and MDM2. On the second day after injecting cells into the tail vein of the model mice, they were grouped and administered. During the medication period, they were weighed on time. At the end of the modeling, the lung wet weight of each group of mice was measured, and the situation of lung metastases was observed.

The test system of experiment [3] is FASN. Put plainly: Protein mass spectrometry of residual lung metastatic lesions. Format: in vivo, mice. The text has this: On the basis of the above model, primary cells were extracted from the residual gastric cancer cells metastatic foci of the lungs of EGCG-treated mice, named BGC823-LPC2. Firstly, protein mass spectrometry analysis was continued on the residual metastatic lesions in the lungs of the EGCG group and the combined treatment group with SP141 and JP3, with a focus on observing the protein expression changes of each independent molecule identified in 1.4 above.

The test system of another experiment is MGC803. In words: CCK-8 half inhibitory concentration on gastric cancer cells. The class given is cell-based. As to conditions: CCK-8, MGC803.
In a further experiment the test system is AGS. Described as above. The class given is cell-based. The settings on record: CCK-8, AGS.
The next experiment has as its system MFC. The experiment is described as above. The class given is cell-based, mouse. As to conditions: CCK-8, MFC.
A further experiment has as its system SGC7901. The description is as above. As to conditions: CCK-8, SGC7901. The class given is cell-based.
Another experiment relates to BGC823. The experiment is described as above. The class given is cell-based. As to conditions: CCK-8, BGC823.
Experiment [4] concerns gastric cancer cells BGC823, SGC7901, and MFC. In words: Perforated cell count (transwell) after SP141. Format: cell-based. As to conditions: different doses, 24 hours.
For experiment [5] the test system is unchanged. In words: Cell scratch assay after SP141. Format: cell-based.
Experiment [6] concerns gastric cancer cell line MFC. Put plainly: MFC abdominal implant metastasis model. The class given is in vivo, mouse. The method, then:
The mouse-derived gastric cancer cell line MFC were selected to construct an abdominal implant metastasis model. On the second day of cell inoculation, different doses of SP141 were administered intraperitoneally for intervention. The modeling was completed and the number of abdominal metastatic nodules was recorded.

For experiment [7], the system named is MDM2. Put plainly: MDM2 and JWA protein expression in BGC823 cells after SP141. Format: cell-based. The settings on record: BGC823, 0, 0.25, 0.5 μM, 24 hours. The method, then:
With a cell model, the mutual regulation between JWA and MDM2 proteins was examined. […] Thereafter, 0, 0.25, 0.5 μM SP141 were used to inhibit the expression level of MDM2 in gastric cancer cells BGC823 for 24 hours. […] Thus, it can be seen that as shown in FIGS. 9A-9C, in gastric cancer, JWA and MDM2 have no mutually regulatory relationship at the protein and mRNA levels, and their respective biological functions on gastric cancer cells are independent.

A further experiment deals with AGS cells. Put plainly: Transwell assay in AGS cells, Flag-JWA plasmid and SP141. As to conditions: compared to the control group. Format: cell-based. The text has this: Thus, as shown in FIGS. 10A-10B, the combined intervention of JWA and MDM2 has a synergistic inhibitory effect on gastric cancer cell migration.
Another experiment concerns BGC823-luc. In words: BGC823-luc tail vein passive metastasis model, in vivo fluorescence imaging. Also noted: species or system nude mice. The method, then: In an in vivo model, fluorescent labeled gastric cancer cells BGC823-luc were injected into the tail vein of nude mice to construct a passive metastasis model of gastric cancer. Drug intervention began on the second day after cell inoculation (FIG. 11A). […] The weight of the mice of the drug intervention group was relatively stable and in good condition (FIG. 11B). […] Thus, as shown in FIGS. 11A-11D, the joint intervention of JWA and MDM2 has a synergistic inhibitory effect on gastric cancer metastasis in vivo.

The test system of a further experiment is B16F10 melanoma cells. Put plainly: B16F10 tail vein passive lung metastasis model. The settings on record: different doses, dose-response. The class given is in vivo, mice. The method, then:
A passive metastasis model was constructed by injecting B16F10 melanoma cells into the tail vein of mice. On the second day of cell inoculation, the mice were grouped, and Ctrl-R or JP1 peptides were injected intraperitoneally for intervention. […] Note: Ctrl-R peptide and JP1 peptide can be found in Cui J, et al. Theranotics 2020; 10 (18): Recorded in 8036-8050.
A passive metastatic mouse model was constructed using B16F10 cells. On the second day of cell inoculation, different doses of SP141 were used for intervention. At the end of the modeling, the number of metastatic nodules in the lungs was recorded. As shown in FIGS. 29A-29D, SP141 can inhibit the lung metastasis of melanoma in mice, and there is a dose-response relationship. […] Conclusion: inhibition of MDM2 by SP141 can effectively reduce in vivo metastasis of melanoma in mice.
The mouse model validation was further carried out on the basis of cell model validation. A lung metastasis model with B16F10 cell tail vein injection was constructed, and on the second day, the mice were randomly grouped according to their body weight for drug intervention. As shown in FIGS. 31A-31F, the joint intervention of JWA and MDM2 has a synergistic inhibitory effect on the in vivo metastasis of melanoma. […]

In experiment [8] the test system is MDM2. In words: MDM2 and JWA protein expression in B16F10 cells after SP141. As to conditions: B16F10, 0, 0.25, 0.5 μM, 24 hours. The class given is cell-based. The method, then:
The relationship between the expression levels of JWA and MDM2 genes and the prognosis of melanoma population was analyzed using the TCGA database. […] Meanwhile, melanoma cells B16F10 were treated respectively with 0, 0.25, 0.5 μM SP141 for 24 hours, and the protein expression levels of MDM2 and JWA were measured.

Consider `CCC[C@H](NC(=O)/C(C#N)=C/c1cccc(Br)n1)c1ccccc1` [WP-1130], for which the “number of cell perforations” value in the experiment on BGC823-LPC2 is listed as “significantly inhibit”. Also, in the experiment on USP9X, the “expression of USP9X protein” value is “reduced” and the “transfer related protein p-AKT” value was “correspondingly reduced”. The scratch experiment entry in the experiment on BGC823 LPC2 cells was “consistent with those of the small chamber perforation experiment”. In the experiment on BGC823-LPC2 cells, the lung metastatic foci result is on record as “decreased significantly” and the lung wet weight result was “decreased significantly”.

For `O=C(O[C@@H]1Cc2c(O)cc(O)cc2O[C@@H]1c1cc(O)c(O)c(O)c1)c1cc(O)c(O)c(O)c1` [EGCG], in [1], the “number of perforation cells” value is “significantly reduced”. For the same molecule, in the experiment with FASN [2], the “expression level of FASN protein” value is “reduced” and the “transfer related protein FAK” value is on record as “correspondingly reduced”. Moreover, in the experiment on BGC823-LPC1, the lung wet weight entry was “significant decrease” and the “number of metastatic foci” value is reported as “significant decrease”. The “rest of the proteins inhibited” value in the experiment with FASN [3] (other independent molecules identified in 1.4) is on record as “less than 20%”. For the same molecule, in the experiment with FASN [3] (residual lung metastatic lesions, vs SP141 and JP3 combined treatment group), the FASN inhibited is 22%. Besides, in the experiment with BGC823-LPC2 cells, the lung metastatic foci entry is listed as “did not decrease significantly” and the lung wet weight result is listed as “not obvious”.

Turning to `COc1ccc2[nH]c3c(-c4cccc5ccccc45)nccc3c2c1` [SP141], the IC50 in the experiment with MGC803 was determined as 616 nM; in the experiment with AGS it was 335 nM; with MFC, 345 nM; in the experiment with SGC7901, 687 nM; in the experiment on BGC823 it was 599 nM. Besides, the “number of perforated cells” value in experiment [4] is “gradually decreased with increasing dose”. Further, the “migration rate of the cells” value in [5] is “significantly slowed down”. The “number of abdominal metastatic nodules compared with the control group” value in experiment [6] (40 mg/kg group) is recorded as “statistically significant”. For the same molecule, in experiment [6] (40 mg/kg group vs control, immunoblotting), the “MDM2 protein levels in residual tumor tissues” value was “significant decrease”. Moreover, the “number of gastric cancer abdominal implantation metastases” value in experiment [6] (different doses intraperitoneally) is “could inhibit the number of gastric cancer abdominal implantation metastases”. For the same molecule, the “protein expression level of JWA” value in the experiment on MDM2 [7] is given as “no significant change”. The “protein expression level of MDM2” value with MDM2 [7] and with MDM2 [8] was “decreased with increasing SP141 dose” in each case. Moreover, in the experiment with AGS cells, the “number of cell perforations” value is listed as “decrease”. For the same molecule, in the experiment with BGC823-luc, the “fluorescence intensity of lung metastases” value is recorded as “weaker than that of the control group”. Besides, the “lung metastasis of melanoma” value in the experiment on B16F10 melanoma cells is “can inhibit”. Further, the “JWA protein expression level” value in the experiment on MDM2 [8] is “no significant change”.

In the case of `CCCCCCCCCCC[C@@H](C[C@@H]1OC(=O)[C@H]1CCCCCC)OC(=O)[C@H](CC(C)C)NC=O` [Orlistat], in the experiment on BGC823-LPC1, the lung wet weight result was “significant decrease” and the “number of metastatic foci” value is listed as “significant decrease”.
